Reference: the supplement of paper PMC6045584
± gives the standard deviation of the averaged measurements.

How the values were obtained:
FLUOROURACIL = compound: O=c1[nH]cc(F)c(=O)[nH]1 [FLUOROURACIL]; test: surviving fraction relative to DMSO-only wells; higher = less growth inhibition; settings: exposure time: 5 days
How it was run: (§1)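 Viability was determined by CellTiter-Glo luminescence, expressed as surviving fraction normalised to the median of DMSO-only wells. The cells were log-phase tumour cell lines seeded at 250–500 per well in 384-well plates and, after 24 hours, exposed continuously for five days to inhibitors at 0.5, 1, 5, 10, 50, 100, 500 and 1000 nM. Three screens per line were run, keeping only lines with replicate Pearson r >0.7 and median Z' >0.3.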

ABT-737 = compound: CN(C)CC[C@H](CSc1ccccc1)Nc1ccc(S(=O)(=O)NC(=O)c2ccc(N3CCN(Cc4ccccc4-c4ccc(Cl)cc4)CC3)cc2)cc1[N+](=O)[O-] [ABT-737]; test: as above; settings: exposure time: 5 days
How it was run: as §1

Row | Test System | surviving fraction (FLUOROURACIL; 0.5 nM) | surviving fraction (FLUOROURACIL; 1 nM) | surviving fraction (FLUOROURACIL; 5 nM) | surviving fraction (FLUOROURACIL; 10 nM) | surviving fraction (FLUOROURACIL; 50 nM) | surviving fraction (FLUOROURACIL; 100 nM) | surviving fraction (FLUOROURACIL; 500 nM) | surviving fraction (FLUOROURACIL; 1000 nM) | surviving fraction (ABT-737; 0.5 nM) | surviving fraction (ABT-737; 1 nM) | surviving fraction (ABT-737; 5 nM) | surviving fraction (ABT-737; 10 nM) | surviving fraction (ABT-737; 50 nM) | surviving fraction (ABT-737; 100 nM) | surviving fraction (ABT-737; 500 nM) | surviving fraction (ABT-737; 1000 nM)
1 | HCC1395 BREAST | 1.01 ± 0.093 | 0.966 ± 0.21 | 1.13 ± 0.1 | 1.16 ± 0.072 | 0.945 ± 0.1 | 0.955 ± 0.12 | 0.887 ± 0.053 | 0.947 ± 0.077 | 1.15 ± 0.075 | 1.14 ± 0.053 | 1.27 ± 0.047 | 1.25 ± 0.061 | 1.19 ± 0.024 | 1.32 ± 0.033 | 1.12 ± 0.069 | 1.1 ± 0.065
2 | HCC1806 BREAST | 1.1 ± 0.028 | 1.02 ± 0.12 | 1.08 ± 0.043 | 0.973 ± 0.081 | 0.992 ± 0.069 | 0.939 ± 0.065 | 0.737 ± 0.12 | 0.601 ± 0.033 | 1.06 ± 0.057 | 1.02 ± 0.15 | 1.16 ± 0.081 | 1.207 ± 0.008 | 1.17 ± 0.11 | 1.16 ± 0.067 | 1.05 ± 0.074 | 1.13 ± 0.04
3 | HCC1954 BREAST | 1.13 ± 0.31 | 1.21 ± 0.17 | 1.13 ± 0.07 | 1.26 ± 0.21 | 0.572 ± 0.11 | 0.629 ± 0.063 | 0.681 ± 0.095 | 0.571 ± 0.018 | 1.09 ± 0.11 | 1.02 ± 0.092 | 1.21 ± 0.047 | 1.25 ± 0.033 | 0.878 ± 0.17 | 0.917 ± 0.26 | 0.674 ± 0.15 | 0.564 ± 0.092
4 | HCT15 LARGE INTESTINE | 1.05 ± 0.062 | 1.01 ± 0.051 | 1.043 ± 0.01 | 0.995 ± 0.06 | 0.976 ± 0.069 | 0.878 ± 0.048 | 0.262 ± 0.013 | 0.163 ± 0.0084 | 1.02 ± 0.1 | 1.02 ± 0.14 | 1.02 ± 0.12 | 1.02 ± 0.17 | 1.1 ± 0.073 | 1.08 ± 0.094 | 1.03 ± 0.11 | 1.09 ± 0.029
5 | HELA CERVIX | 1.07 ± 0.017 | 0.993 ± 0.031 | 0.997 ± 0.019 | 1.03 ± 0.037 | 1.01 ± 0.062 | 1.06 ± 0.027 | 1.3 ± 0.035 | 1.15 ± 0.096 | 1.05 ± 0.04 | 1.05 ± 0.04 | 1.06 ± 0.017 | 1.06 ± 0.047 | 1.14 ± 0.085 | 1.11 ± 0.084 | 1.2 ± 0.13 | 1.16 ± 0.07
6 | HOS BONE | 1.05 ± 0.025 | 1.01 ± 0.017 | 1.02 ± 0.015 | 0.99 ± 0.015 | 1.03 ± 0.039 | 1.01 ± 0.034 | 0.8203 ± 0.0081 | 0.639 ± 0.032 | 1.01 ± 0.028 | 1.03 ± 0.013 | 1.03 ± 0.026 | 1.03 ± 0.02 | 1.06 ± 0.016 | 1.084 ± 0.0046 | 1.08 ± 0.046 | 1.03 ± 0.021
7 | HOSMNG BONE | 0.969 ± 0.012 | 1.03 ± 0.037 | 0.933 ± 0.024 | 0.962 ± 0.043 | 1.12 ± 0.13 | 1.19 ± 0.042 | 1.03 ± 0.031 | 1.02 ± 0.037 | 0.879 ± 0.057 | 0.942 ± 0.099 | 0.888 ± 0.06 | 0.893 ± 0.073 | 0.928 ± 0.072 | 1 ± 0.075 | 0.921 ± 0.12 | 0.944 ± 0.11
8 | HSSYII SYNOVIAL | 0.933 ± 0.045 | 0.938 ± 0.078 | 0.992 ± 0.075 | 0.949 ± 0.043 | 0.942 ± 0.016 | 0.911 ± 0.059 | 0.906 ± 0.028 | 0.853 ± 0.02 | 1.03 ± 0.064 | 0.999 ± 0.044 | 0.99 ± 0.043 | 0.972 ± 0.045 | 1.12 ± 0.054 | 0.859 ± 0.041 | 0.637 ± 0.017 | 0.54 ± 0.079
9 | HT1080 SOFT TISSUE | 1.06 ± 0.016 | 1.087 ± 0.0087 | 1.07 ± 0.0075 | 1.07 ± 0.029 | 0.965 ± 0.061 | 0.991 ± 0.021 | 0.637 ± 0.063 | 0.406 ± 0.019 | 1.06 ± 0.045 | 1.06 ± 0.018 | 1.05 ± 0.022 | 1.07 ± 0.045 | 1 ± 0.028 | 1.05 ± 0.029 | 1.01 ± 0.032 | 1.02 ± 0.028
10 | HU09 BONE | 1.06 ± 0.13 | 0.966 ± 0.045 | 1.1 ± 0.022 | 1.1 ± 0.038 | 0.985 ± 0.092 | 0.941 ± 0.051 | 0.693 ± 0.091 | 0.604 ± 0.031 | 1.08 ± 0.08 | 1.07 ± 0.12 | 1.1 ± 0.0064 | 1.06 ± 0.065 | 0.988 ± 0.063 | 0.912 ± 0.08 | 0.697 ± 0.031 | 0.617 ± 0.027
